Earlier results in patent publication US20190314449A1, “CYCLIC DIPEPTIDES AND WOUND HEALING” (THE BOARD OF REGENTS OF THE UNIVERSITY OF TEXAS SYSTEM, priority 2016, published 2019).

How the values were obtained:
[1] = human, acute oral, 24 mg/dose, cited from earlier work
[2] = system: heme oxygenase 1; details: neuronal cultures; cited from earlier work

O=C1NC(Cc2c[nH]cn2)C(=O)N2CCCC12 (centres unmarked) [Cyclo-His-Pro]
time at which plasma CHP levels peak ([1]; plasma): 4 h | time at which plasma CHP levels return to normal ([1]; plasma): ≤ 24 h | absorption from the gastrointestinal tract [1]: absorbed from the gastrointestinal tract | side effects based on physical and blood chemistry examinations [1]: No side effects | heme oxygenase 1 expression via activation of Nrf-2 ARE signaling [2]: up-regulate heme oxygenase 1
